# Measured values published in patent US20250313860A1, “EXPRESSION OF EXOGENOUS PROTEINS IN DONOR PLATELETS TREATED WITH LIPID NANOPARTICLES” (THE UNIVERSITY OF BRITISH COLUMBIA, priority 2022, published 2025).
# Columns and labels:
# human platelets = experiment: Platelet responsiveness to agonists ADP and thrombin (CD62P flow cytometry); type: cell-based; conditions: transfected and control untreated platelets, FIG. 3A
# Procedure: (§1) Platelets untreated or treated with CL4H6 POPC LNP were activated after 2 h with 0.1 U mL-1 thrombin from human plasma (MilliporeSigma Canada Ltd, Oakville, ON) or 10 μM Chrono-Par® ADP reagent (Chrono-Log, Havertown, PA) in Tyrode's-HEPES buffer pH 7.4 (134 mM NaCl, 2.9 mM KCl, 0.34 mM NaH2PO4, 10 mM HEPES, 5 mM D-glucose). After 4 h LNP treatment, platelets were collected for flow cytometry and the remaining sample was centrifuged at 250×g for 10 min, with the pellet and supernatant fractions collected for luciferase assay.
# Platelet responsiveness to agonists ADP or thrombin was measured by flow cytometry staining using PE-conjugated mouse anti-human CD62P labeling, as described in the Materials and Methods.
# [1] = tested on: platelets transfected with mRNA-LNP; experiment: Intracellular and extracellular NanoLuc after agonist activation of transfected platelets; type: cell-based, human; conditions: after agonist stimulation of transfected platelets; for intracellular NanoLuc level (cell pellet): FIG. 4D; for extracellular NanoLuc level (supernatant): FIG. 4E
# Procedure: as §1
# Platelets were transfected with mRNA-LNP encoding NanoLuc, followed by activation with agonists ADP or thrombin. Intracellular and extracellular protein was separated by centrifugation, and enzymatic activity assays were used to measure exogenous protein levels in both fractions as described in the Materials and Methods.
# [2] = tested on: platelets transfected with mRNA-LNP; experiment: Cycloheximide treatment of mRNA-LNP transfected platelets; type: cell-based, human
# From the text: Platelets were transfected with mRNA encoding nanoluciferase (NanoLuc) encapsulated in LNP formulation using ALC0315 and DOPC immediately preceding treatment with cycloheximide, followed by enzymatic assays of nanoluciferase activity, and activation by flow cytometry using PE-conjugated mouse anti-human CD62P labeling, as described in the Materials and Methods.
Molecule,increase of CD62P levels by agonist (human platelets),intracellular NanoLuc level (cell pellet) [1],extracellular NanoLuc level (supernatant) [1],"exogenous protein synthesis in transfected platelets ([2]; LNP with ALC0315 and DOPC, FIG. 5A)","mRNA-LNP uptake in transfected platelets ([2]; presence or absence of cycloheximide, FIG. 5B)"
thrombin,substantially,decreased,decreased,–,–
C[C@@H]1C[C@@H]([C@H](O)CC2CC(=O)NC(=O)C2)C(=O)[C@@H](C)C1 [cycloheximide],–,–,–,inhibited,no statistically significant effect
Nc1ncnc2c1ncn2[C@@H]1O[C@H](COP(=O)(O)OP(=O)(O)O)[C@@H](O)[C@H]1O [ADP],mildly,unchanged,unchanged,–,–
